Patent publication US10240133B2, “ERK-derived peptides and uses thereof” (Yeda Research and Development Co. Ltd., priority 2013, dated 2019)
Entries after “also recorded” stand apart in the source; their conditions may differ.

How the values were obtained:
ERK1/2 = test: Western blotting of ERK phosphorylation (TEY, NTS); type: cell-based
Method: (A) EPE peptide prevents ERK1/2-importin7 interaction. HeLa cells were serum starved (0.1%, 16 hours), pretreated with EPE peptide, scrambled peptide (10 μM, 2 hours) or DMSO, and then stimulated with TPA (250 nM, 15 min). ERK1 were precipitated with αgERK1 Ab; importin7 co-immunoprecipitated with ERK1 was detected by WB with αimportin7 Ab. […] T47D, HeLa, MDA-MB-231 and A2352 cells were serum starved (0.1%, 16 hours), pretreated with EPE peptide, scrambled peptide (10 μM, 2 hours) or DMSO control, and then stimulated with TPA (250 nM, indicated times). Cell extracts were subjected to Western blot analysis with the indicated Abs. (C) EPE peptide inhibits phosphorylation of c-Myc and Elk1 in B-Raf melanomas. A2158 and A2352 cells were treated with scrambled and EPE peptide for two hours and then stimulated with the indicated concentration of TPA for 30 min. […] (D) Quantification of some of the results in B and C. […]
(i) Preparation of cellular extracts for Western Blotting: Cells were rinsed twice with ice-cold PBS and scraped into Radio-immunoprecipitation assay buffer (RIPA; 137 mM NaCl, 20 mM Tris (pH 7.4), 10% glycerol, 1% Triton X-100, 0.5% deoxycholate, 0.1% SDS, 2 mM EDTA, 1 mM PMSF, and 20 μM leupeptin). The extracts were centrifuged (20,000×g, 15 min, 4° C.), and the supernatants were further analyzed by Western blotting. […]

B-Raf mutated melanomas = test: Apoptosis (TUNEL, PARP-1 cleavage); type: cell-based; details: 24 h
Method: (§1) FIGS. 5A-5D illustrate that the EPE peptide leads to apoptosis of B-Raf mutant cancer cells. (A) The EPE peptide affects the morphology of treated cells. The indicated cells were treated with either the EPE or Scr peptides, DMSO, or taxol for 72 h, and photographed by a light microscope. (B) The EPE peptide induces apoptosis in melanoma cells detected by TUNEL. The indicated cell lines were treated as in A for 24 h. Apoptosis was detected by TUNEL staining. Images were obtained by florescence microscope. (C) Quantification of B. The bar-graph represents percent of apoptotic cells calculated in 10 different fields. (D) The EPE peptide induces apoptosis of melanoma cells detected by PARP cleavage. The indicated cell lines were treated as in (A) for 24 h. Cell extracts were subjected to Western blotting with αPARP Ab.
(§2) Cells were seeded on glass cover slips in a 12-wells plate at 25% confluence with medium containing 1% of FCS. Peptides (EPE or Scr), DMSO, or U0126 in a final concentration of 10 μM, were added after 4 h (considered as time “0”). TUNEL staining was performed at 24 h after the treatment according to manufacturer instruction (Roche Applied Science, Nutley, N.J., USA). Briefly, the medium was removed and cells were fixed with 3% of paraformaldehyde (1.5 h, 23° C.). Cells were rinsed twice with PBS and permeabilized with 0.1% Triton X-100 and 0.1% sodium citrate for 2 min on ice. Cells were rinsed twice with PBS and 28 μl of TUNEL reaction mixture (25 μl of TUNEL label, 2.5 μl of TUNEL enzyme and 0.1 mg/ml of DAPI) was added directly on top of the slide, cells were incubated for 16 h in humid box at 37° C. Cover slips were rinsed three times with PBS and mounted on microscope slides. The slides were dried and then subjected to image acquisition by a florescence microscope. For morphology assay, the cells were seeded at approximately 25% confluence in 6 cm plates with medium containing 1% FCS. Peptides (EPE and Scr) or DMSO or U0126 in a final concentration of 10 μM, were added after 4 h (considered to be time 0), 24 h and 48 h. Images were obtained by a light microscope (Olympus BX51) after 72 h.

[1] = tested on: other cell lines examined; test: Apoptosis (TUNEL, PARP-1 cleavage); type: cell-based
Method: as §1, §2

[2] = tested on: low passage A2352 B-Raf melanoma xenograft; test: Tumor xenograft growth; type: in vivo, SCID mice; details: tail vein administration
Method: FIGS. 6A-6B illustrate that the EPE peptide prevents the growth of human tumor xenografts. CD-1 nude mice were inoculated with MDA-MB-231, LOXIMVI and HCT-116 cells, and SKID mice were inoculated with A2352 cells. Upon tumors establishment, the mice were treated intravenously with the DMSO as well as EPE or Scr peptides in the indicated doses, 3 times a week. The results are averages of 5 mice in each experimental group. The X, Y, Z dimensions of the tumors were measured with a caliper, and the volume was calculated accordingly. The significance of all experiments was at least P<0.001. (B) The EPE peptide prevents tumor recurrence on melanoma xenograft. SCID mice were inoculated with A2352 cells. Upon establishment of tumors mice were treated intravenously with 15 mg/kg EPE peptide (n=7) or intraperitonealy with 15 mg/kg PLX4032 (n=5), at the indicated dose 3 times a week. Tumor size was recorded at the same time using a caliper. Following 3 weeks of treatment, mice were kept for further evaluation monitoring for any tumor recurrence of the effective treated melanoma xenografts. Experiment was concluded 110 days post inoculation (11 weeks after the last treatment) and the overall state of the animals was evaluated. sac=sacrificed, recur=recurrence, met=metastasis.
Tumor dimensions were measured with a digital sliding caliper.

Sequence: GQLNHILGILGEPEQED (Synthetic peptide (EPE)) [EPE peptide, NTS-derived peptide with phosphomimetic EPE motif]
- NTS phosphorylation (by CK2) of ERK1/2 (ERK1/2; T47D, HeLa, MDA-MB-231 and A2352 cells): only slightly affected; also recorded: prevents ERK1/2's NTS
- activatory ERK-TEY phosphorylation (ERK1/2; four distinct cell lines): no effect
- apoptosis (TUNEL, PARP-1) (B-Raf mutated melanomas): enhanced apoptosis
- apoptosis relative to Taxol (B-Raf mutated melanomas): as strong as the apoptosis induced by Taxol
- apoptosis / cell death [1]: No apoptosis was detected
- time to complete eradication of melanoma xenograft [2]: ≤ 2 weeks
